According to US20230416245A1, “ADENOSINE ANALOGS FOR THE TREATMENT OF DISEASE” (BIOINTERVENE, INC., priority 2020, published 2023):

Target: human adenosine A3 receptor (Homo sapiens (Human), UniProt P0DMS8)
Test: Intracellular cAMP levels (inhibition of forskolin-stimulated cAMP production)
Type: cell-based
Details: for EC50: CHO cells expressing human adenosine A3 receptors, forskolin 10 μM; for CAMP Efficacy (%): maximal response as percentage of the response produced by 100 nM IB-MECA
In short: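 CHO-K1 cells stably expressing human A3 receptor were exposed to compound (0.1 nM–1 μM) for 5 min at 37 °C, then 10 μM forskolin for 10 min. cAMP measured by competitive enzyme immunoassay (OD 450 nm); EC50 from Hill fit of inhibition, maximum relative to 100 nM IB-MECA.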

Sequence of human adenosine A3 receptor (P0DMS8 whole entry): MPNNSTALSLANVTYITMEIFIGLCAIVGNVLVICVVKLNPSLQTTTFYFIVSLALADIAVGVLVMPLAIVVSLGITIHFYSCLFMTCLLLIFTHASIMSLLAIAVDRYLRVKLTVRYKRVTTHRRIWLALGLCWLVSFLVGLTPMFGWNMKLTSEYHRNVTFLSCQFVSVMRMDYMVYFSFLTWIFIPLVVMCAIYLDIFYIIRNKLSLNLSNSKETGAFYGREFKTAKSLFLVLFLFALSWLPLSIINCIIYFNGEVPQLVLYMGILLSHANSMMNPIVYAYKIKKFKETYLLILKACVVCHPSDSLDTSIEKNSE

EC50	CAMP Efficacy (%)	Structure (SMILES)
1.33 nM	80.97%	O[C@@H]1[C@H](O)[C@@H]2C[C@@H]2[C@H]1n1cnc2c(NCC(F)F)nc(Cl)nc21 [Compound 35, (1R,2R,3S,4R,5S)-4-(2-chloro-6-((2,2-difluoroethyl)amino)-9H-purin-9-yl)bicyclo[3.1.0]hexane-2,3-diol]
8.6 nM	77.6%	O[C@@H]1[C@H](O)[C@@H]2C[C@@H]2[C@H]1n1cnc2c(NCC(F)F)cc(Cl)nc21 [Compound 40, (1R,2R,3S,4R,5S)-4-(5-chloro-7-((2,2-difluoroethyl)amino)-3H-imidazo[4,5-b]pyridin-3-yl)bicyclo[3.1.0]hexane-2,3-diol]
> 10000 nM	1%	CCNc1cc(C#CC2CC2)nc2c1ncn2[C@H]1[C@H](O)[C@H](O)[C@@H]2C[C@@H]21 [Compound 46, (1R,2R,3S,4R,5S)-4-(5-(cyclopropylethynyl)-7-(ethylamino)-3H-imidazo[4,5-b]pyridin-3-yl)bicyclo[3.1.0]hexane-2,3-diol]
> 10000 nM	1%	Cc1c(Cl)nc2c(ncn2[C@H]2[C@H](O)[C@H](O)[C@@H]3C[C@@H]32)c1NCC(F)F [Compound 60, (1R,2R,3S,4R,5S)-4-(5-chloro-7-((2,2-difluoroethyl)amino)-6-methyl-3H-imidazo[4,5-b]pyridin-3-yl)bicyclo[3.1.0]hexane-2,3-diol]
